Patent US11566002B2, “Substituted tetrahydrocyclopenta[C]pyrroles, substituted dihydropyrrolizines, analogues thereof, and methods using same” (priority 2018, dated 2023)

These molecules were tested on HBV rcDNA (assay: HepDE19 assay with bDNA quantitation of HBV rcDNA). Settings: HepDE19 cells, Tet-free medium, 7 day-incubation, rcDNA measured by Quantigene 2.0 bDNA assay, top concentration 25 μM; read-out: DE-19 bDNA EC50.
Assay type: cell-based, hepatitis B virus
In short: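 HepDE19 cells (50,000/well) switched to Tet-free medium, then treated 7 days at 37° C with compounds from 25 μM (½-log, 8-point, duplicate; 0.5% DMSO). rcDNA quantified by bDNA with HBV probes; EC50/EC90 by 4-parameter fit. CC50 from CTG ATP on 5,000 cells/well after 4 days.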

| Structure (SMILES) | EC50 [µM] |
| --- | --- |
| Cn1ncc(COC(=O)NC2CCc3c2cn(C)c3C(=O)Nc2ccc(F)c(Cl)c2)n1 (single isomer, unassigned) [Compound 128, (2-Methyl-2H-1,2,3-triazol-4-yl)methyl (1-((3-chloro-4-fluorophenyl)carbamoyl)-2-methyl-2,4,5,6-tetrahydrocyclopenta[c]pyrrol-4-yl)carbamate] | 1.7 |
| Cn1cnc(COC(=O)NC2CCCCc3c2cn(C)c3C(=O)Nc2ccc(F)c(Cl)c2)n1 (single isomer, unassigned) [Compound 89, (1-Methyl-1H-1,2,4-triazol-3-yl)methyl (1-((3-chloro-4-fluorophenyl)carbamoyl)-2-methyl-2,4,5,6,7,8-hexahydrocyclohepta[c]pyrrol-4-yl)carbamate] | 2.9 |
| Cn1c(C(=O)Nc2ccc(F)c(Cl)c2)c2c(c1C(F)(F)F)C(NC(=O)OCc1nc[nH]n1)CC2 (single isomer, unassigned) [Compound 127, (1H-1,2,4-Triazol-3-yl)methyl (1-((3-chloro-4-fluorophenyl)carbamoyl)-2-methyl-3-(trifluoromethyl)-2,4,5,6-tetrahydrocyclopenta[c]pyrrol-4-yl)carbamate] | 0.44 |
| Cn1cc2c(c1C(=O)Nc1ccc(F)c(Cl)c1)CCC2NC(=O)OC[C@H]1CCC(=O)N1 (single isomer, unassigned) [Compound 120] | 0.21 |
| Cn1nnc(COC(=O)NC2CCc3c2cn(C)c3C(=O)Nc2ccc(F)c(Cl)c2)n1 (centres unmarked) [Compound 142, (2-Methyl-1H-tetrazol-5-yl)methyl (1-((3-chloro-4-fluorophenyl)carbamoyl)-2-methyl-2,4,5,6-tetrahydrocyclopenta[c]pyrrol-4-yl)carbamate] | 3.2 |
| CCn1cc2c(c1C(=O)Nc1ccc(F)c(Cl)c1)CCC2NC(=O)OCc1ccn(C)n1 (single isomer, unassigned) [Compound 28, (1-Methyl-1H-pyrazol-3-yl)methyl (1-((3-chloro-4-fluorophenyl)carbamoyl)-2-ethyl-2,4,5,6-tetrahydrocyclopenta[c]pyrrol-4-yl)carbamate] | 0.23 |
| Cn1cc2c(c1C(=O)Nc1ccc(F)c(Cl)c1)CCC2NS(=O)(=O)C1CC1 (single isomer, unassigned) [Compound 13, N-(3-Chloro-4-fluorophenyl)-4-(cyclopropanesulfonamido)-2-methyl-2,4,5,6-tetrahydrocyclopenta [c]pyrrole-1-carboxamide] | 6.8 |
| Cc1c2c(c(C(=O)Nc3ccc(F)c(Cl)c3)n1C)CCC2NC(=O)OCc1ncn(C)n1 (single isomer, unassigned) [Compound 83, (1-Methyl-1H-1,2,4-triazol-3-yl)methyl (1-((3-chloro-4-fluorophenyl)carbamoyl)-2,3-dimethyl-2,4,5,6-tetrahydrocyclopenta[c]pyrrol-4-yl)carbamate] | 3.3 |
| Cn1cc2c(c1C(=O)Nc1ccc(F)c(Cl)c1)CCCCC2N (centres unmarked) [Compound 87, 4-Amino-N-(3-chloro-4-fluorophenyl)-2-methyl-2,4,5,6,7,8-hexahydro cyclohepta[c]pyrrole-1-carboxamide] | 1.6 |
| Cn1cc2c(c1C(=O)Nc1ccc(F)c(Cl)c1)CCC2NC(=O)OCc1nc[nH]n1 (single isomer, unassigned) [Compound 58, (1H-1,2,4-Triazol-3-yl)methyl (1-((3-chloro-4-fluorophenyl)carbamoyl)-2-methyl-2,4,5,6-tetrahydrocyclopenta[c]pyrrol-4-yl)carbamate] | 0.97 |
| Cn1cc2c(c1C(=O)Nc1ccc(F)c(Cl)c1)CCCC2NS(=O)(=O)C1CC1 (single isomer, unassigned) [Compound 30, N-(3-Chloro-4-fluorophenyl)-4-(cyclopropanesulfonamido)-2-methyl-4,5,6,7-tetrahydro-2H-isoindole-1-carboxamide] | 2.1 |
| Cn1c(Cl)c2c(c1C(=O)Nc1ccc(F)c(Cl)c1)CCC2NC(=O)OCc1nc[nH]n1 (single isomer, unassigned) [Compound 104, (1H-1,2,4-Triazol-3-yl)methyl (3-chloro-1-((3-chloro-4-fluorophenyl)carbamoyl)-2-methyl-2,4,5,6-tetrahydrocyclopenta[c]pyrrol-4-yl)carbamate] | 1.9 |

Same assay, conditions: Hepatitis B virus, HepDE19, 168 h, HepDE19 cells, Tet-free medium, 7 day-incubation, rcDNA measured by Quantigene 2.0 bDNA assay, top concentration 25 μM; read-out: DE-19 bDNA EC50

| Structure (SMILES) | EC50 [µM] |
| --- | --- |
| Cn1cc2c(c1C(=O)Nc1ccc(F)c(Cl)c1)CCCC2NS(=O)(=O)C1CC1 (single isomer, unassigned) [Compound 78, N-(3-Chloro-4-fluorophenyl)-4-(cyclopropanesulfonamido)-2-methyl-4,5,6,7-tetrahydro-2H-isoindole-1-carboxamide] | 3.96 |
| CC(C)OC(=O)C1(COC(=O)NC2CCc3c2cn(C)c3C(=O)Nc2ccc(F)c(Cl)c2)CC(F)(F)C1 (racemic) [Compound 46, isopropyl 1-((((1-((3-chloro-4-fluorophenyl)carbamoyl)-2-methyl-2,4,5,6-tetrahydrocyclopenta[c]pyrrol-4-yl)carbamoyl)oxy)methyl)-3,3-difluorocyclobutane-1-carboxylate] | 2.3 |
| Cn1cc2c(c1C(=O)Nc1ccc(F)c(Cl)c1)CCCC2N (single isomer, unassigned) [Compound 75, 4-Amino-N-(3-chloro-4-fluorophenyl)-2-methyl-4,5,6,7-tetrahydro-2H-isoindole-1-carboxamide] | 2.1 |
| Cn1cnc(COC(=O)NC2CCc3c2cn(C)c3C(=O)Nc2ccc(F)c(C(F)(F)F)c2)n1 (single isomer, unassigned) [Compound 69, (1-Methyl-1H-1,2,4-triazol-3-yl)methyl (1-((4-fluoro-3-(trifluoromethyl)phenyl)carbamoyl)-2-methyl-2,4,5,6-tetrahydrocyclopenta[c]pyrrol-4-yl)carbamate] | 0.28 |
| Cn1cnc(CNC(=O)NC2CCCc3c2cn(C)c3C(=O)Nc2ccc(F)c(Cl)c2)n1 (single isomer, unassigned) [Compound 84, N-(3-Chloro-4-fluorophenyl)-2-methyl-4-(3-((1-methyl-1H-1,2,4-triazol-3-yl)methyl)ureido)-4,5,6,7-tetrahydro-2H-isoindole-1-carboxamide] | 0.34 |
| Cn1cnc(COC(=O)NC2CCc3c2cn(C)c3C(=O)Nc2ccnc(Cl)c2)n1 (single isomer, unassigned) [Compound 68, (1-methyl-1H-1,2,4-triazol-3-yl)methyl (1-((2-chloropyridin-4-yl)carbamoyl)-2-methyl-2,4,5,6-tetrahydrocyclopenta[c]pyrrol-4-yl)carbamate] | 0.66 |
| Cn1cnc(COC(=O)NC2CCc3c2cn(C)c3C(=O)Nc2ccnc(C(F)(F)F)c2)n1 (single isomer, unassigned) [Compound 73, (1-methyl-1H-1,2,4-triazol-3-yl)methyl (2-methyl-1-((2-(trifluoromethyl)pyridin-4-yl)carbamoyl)-2,4,5,6-tetrahydrocyclopenta[c]pyrrol-4-yl)carbamate] | 0.54 |
| CCn1cc2c(c1C(=O)Nc1ccc(F)c(Cl)c1)CCC2NC(=O)C1CC1 (single isomer, unassigned) [Compound 17, N-(3-Chloro-4-fluorophenyl)-4-(cyclopropanecarboxamido)-2-ethyl-2,4,5,6-tetrahydrocyclopenta[c]pyrrole-1-carboxamide] | 4.9 |

Same assay, conditions: Hepatitis B virus, HepDE19, 168 h, read-out: DE-19 bDNA EC50 (μM), HepDE19 cells, Tet-free medium, 7 day-incubation, rcDNA measured by Quantigene 2.0 bDNA assay, top concentration 25 μM

| Structure (SMILES) | EC50 [µM] |
| --- | --- |
| COC(=O)NC1CCc2c1cn(C)c2C(=O)Nc1ccc(F)c(Cl)c1 (racemic) [Compound 1, methyl 1-(3-chloro-4-fluorophenylcarbamoyl)-2-methyl-2,4,5,6-tetrahydrocyclopenta[c]pyrrol-4-ylcarbamate] | 0.09 |

Same assay, conditions: read-out: DE-19 bDNA EC50; HepDE19 cells, Tet-free medium, 7 day-incubation, rcDNA measured by Quantigene 2.0 bDNA assay, top concentration 25 μM

| Structure (SMILES) | EC50 [µM] |
| --- | --- |
| CCC#CCOC(=O)NC1CCc2c1cn(C)c2C(=O)Nc1ccc(F)c(Cl)c1 (single isomer, unassigned) [Compound 113, Pent-2-yn-1-yl(1-((3-chloro-4-fluorophenyl)carbamoyl)-2-methyl-2,4,5,6-tetrahydrocyclopenta[c]pyrrol-4-yl)carbamate] | 0.12 |
| CCc1n[nH]nc1COC(=O)NC1CCc2c1cn(C)c2C(=O)Nc1ccc(F)c(Cl)c1 (single isomer, unassigned) [Compound 140, (5-Ethyl-2H-1,2,3-triazol-4-yl)methyl(1-((3-chloro-4-fluorophenyl)carbamoyl)-2-methyl-2,4,5,6-tetrahydrocyclopenta[c]pyrrol-4-yl)carbamate] | 12 |
| Cn1ccc(COC(=O)NC2CCc3c2cn(C)c3C(=O)Nc2ccc(F)c(Cl)c2)n1 (single isomer, unassigned) [Compound 21, (1-Methyl-1H-pyrazol-3-yl)methyl(1-((3-chloro-4-fluorophenyl)carbamoyl)-2-methyl-2,4,5,6-tetrahydrocyclopenta[c]pyrrol-4-yl)carbamate] | 0.04 |
| Cn1cc2c(c1C(=O)Nc1ccc(F)c(Cl)c1)CCC2NC(=O)OCc1nnnn1C (single isomer, unassigned) [Compound 144, (1-Methyl-1H-tetrazol-5-yl)methyl(1-((3-chloro-4-fluorophenyl)carbamoyl)-2-methyl-2,4,5,6-tetrahydrocyclopenta[c]pyrrol-4-yl)carbamate] | 0.06 |
| COC(=O)NC1CCCCc2c1cn(C)c2C(=O)Nc1ccc(F)c(Cl)c1 (single isomer, unassigned) [Compound 85, Methyl (1-((3-chloro-4-fluorophenyl)carbamoyl)-2-methyl-2,4,5,6,7,8-hexahydrocyclohepta[c]pyrrol-4-yl)carbamate] | 1.5 |
